# Source: patent US9307768B2, “Synergistic combination of a flurochloridone compound and IPBC for dry film protection” (priority 2013, dated 2016)
# How the values were obtained:
# Chlorella sp. ATCC 7516 = assay: Algal efficacy testing of dry paint film (modified ASTM 5589, 6-well plates); format: cell-based; details: 3 weeks; for Total conc: total biocide concentration in paint reaching pass level (at least 75% inhibition)
# Procedure: (§1) Slurries containing 33% antimicrobial active ingredient (flurochloridone) were post added to a white, acrylic/silicone based outdoor paint free of biocides to give a total active ingredient concentration of 10000 and 1000 ppm respectively. ROCIMA™ 250 (40% IPBC) was post added to a white, acrylic/silicone based outdoor paint free of biocides to give a total active ingredient concentration of 10000 and 1000 ppm respectively. These paints were then diluted with an antimicrobial free acrylic/silicone based paint and mixed to prepare targeted concentrations of antimicrobial compounds for the testing. The total biocides concentrations tested were 125, 250, 500, 1000, 2000 and 5000 ppm. After biocides addition or dilution, the paints were mixed 90 seconds with the horse power shaker (AXEL 75M3372/ Agitateur SO-10MI) until uniformity was achieved. Paints containing different antimicrobial compounds at the same levels were mixed together in order to obtain the desired ratio of antimicrobial compounds. After one day, the paints were applied to Schleicher & Schuell filter paper at 280 μm wet film thickness and dried for 3 days at room temperature avoiding direct exposure to sunlight. Square discs (1.6 cm×1.6 cm) were cut out from each panel and were used as the substrate for algal efficacy tests. This sample size allowed for an agar border when the sample disc was placed into the well of the test plate.
# (§2) Algal efficacy was tested according to modified ASTM 5589 which is a standard accelerated test method for determining resistance of various coatings (including paints) to algal defacement. To accommodate for high-throughput screening, this method was scaled down from petri dishes to 6-well plates. Bold Modified Basal Freshwater Nutrient Solution was used as growth medium. A single coated filter paper coupon was placed with a pair of sterile forceps at the center of the agar plug (on top) with the painted surface facing upwards. Algal inoculums were prepared by mixing equal concentrations (1×10^6 cfu/ml) and equal volumes of exponentially growing algae cultures.
# (§3) Each well that contains a tested coupon was inoculated with 1750 μl of algal suspensions (1×10^6 cfu/ml) making sure that the whole surface (paint film as well as the agar surrounding it) was evenly covered. The plates were incubated at room temp (21° C.-25° C.) with cyclic exposure to light and dark phases, for a period of three weeks. The total area inhibited was evaluated at the end of each week according to percent area covered in 5% increments.
# (§4) At the end of the three week incubation period, the samples were scored for percent inhibition regarding color intensity compared to the blank sample.
# (§5) The SI is calculated based on F. C. Kull et.
# (§6) The minimal targeted inhibition was set at 75%, meaning a coupon with at least 75% algal growth inhibition was considered as a pass.
# [1] = test system: Stichococcus bacillaris SAG 379-1a; assay: as above; format: cell-based; details: 3 weeks; for Total conc: total biocide concentration in paint reaching pass level (at least 75% inhibition)
# Procedure: as §1, §2, §3, §4, §5, §6
Compound,"inhibition at 5000 ppm (Chlorella sp. ATCC 7516; 504 h, total conc 5000 ppm) [%]",Total conc (Chlorella sp. ATCC 7516) [ppm],"inhibition at 5000 ppm ([1]; Stichococcus bacillaris, 504 h, total conc 5000 ppm) [%]",Total conc [1] [ppm],% inhibition (Chlorella sp. ATCC 7516; total conc 2000 ppm) [%],% inhibition ([1]; total conc 2000 ppm) [%]
"O=C1C(Cl)C(CCl)CN1c1cccc(C(F)(F)F)c1 (centres unmarked) [Flurochloridone, 3-chloro-4-(chloromethyl)-1-[3-(trifluoromethyl)phenyl]-2-pyrrolidinone]",85,5000,90,5000,,
"CCCCNC(=O)OCC#CI [IPBC, 3-Iodo-2-propynyl-butylcarbamate]",,2000,,2000,85,90
